# Assay results as given in patent publication US11591341B2 (ALIGOS THERAPEUTICS, INC., priority 2019, dated 2023).
# System: HBV
# Assay: HBV-DNA Antiviral Assay Using HepG2.117 Cells (intracellular HBV DNA by qPCR)
# Assay type: cell-based, hepatitis B virus (genotype D)
# Settings: Hepatitis B virus, HepG2.117
# Outline: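 HepG2.117 cells (genotype D HBV, Tet-off) were induced by doxycycline withdrawal and treated for 3 days with 9 concentrations in 4-fold dilution, 2% DMSO final. Intracellular HBV DNA was measured by qPCR against a standard curve, with ATPlite viability read in parallel. EC50, EC90 and CC50 came from fits against the DMSO control.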
row,Structure (SMILES),EC50 [nM]
1,"CO[C@H]1CN(Cc2ccccc2)Cc2c3n(c(=O)n2C1)CCN(C(=O)c1ccc(Br)c(Cl)c1)C3 (stereo in doubt) [Example 310, rac-(11S)-13-benzyl-4-(4-bromo-3-chloro-benzoyl)-11-methoxy-4,7,9,13-tetrazatricyclo[7.5.0.0^2,7]tetradec-1-ene-8,14-dione]",100 to 500
2,"COc1ccc(-n2c(C(=O)NCc3ccc(=O)[nH]c3)c3n(c2=O)CCN(C(=O)c2ccc(Br)c(Cl)c2)C3)cc1 [Example 192, 7-(4-bromo-3-chloro-benzoyl)-2-(4-methoxyphenyl)-3-oxo-N-[(6-oxo-1H-pyridin-3-yl)methyl]-6,8-dihydro-5H-imidazo[1,5-a]pyrazine-1-carboxamide]",> 5000
3,"CC(C)Oc1ccc(-n2c(C(=O)NCc3ccccc3)c3n(c2=O)CCN(C(c2ccc(Br)c(Cl)c2)C(F)(F)F)C3)cc1 (racemic) [Example 241, N-benzyl-2-(4-isopropoxyphenyl)-3-oxo-7-[rac-(1S)-1-(4-bromo-3-chloro-phenyl)-2,2,2-trifluoro-ethyl]-6,8-dihydro-5H-imidazo[1,5-a]pyrazine-1-carboxamide]",> 5000
4,"COc1cc(C#N)ccc1CNC(=O)c1c2n(c(=O)n1-c1ccc(OCC(F)(F)F)cc1)CCN(C(=O)c1ccc(Br)c(Cl)c1)C2 [Example 249, 7-(4-bromo-3-chloro-benzoyl)-N-[(4-cyano-2-methoxy-phenyl)methyl]-3-oxo-2-[4-(2,2,2-trifluoroethoxy)phenyl]-6,8-dihydro-5H-imidazo[1,5-a]pyrazine-1-carboxamide]",100 to 500
5,"CC(C)Oc1ccc(-n2c(C(=O)NCc3ccccc3)c3n(c2=O)CCN(C(=O)c2cc4c(Cl)cccc4s2)C3)cc1 [Example 224, N-benzyl-7-(4-chlorobenzothiophene-2-carbonyl)-2-(4-isopropoxyphenyl)-3-oxo-6,8-dihydro-5H-imidazo[1,5-a]pyrazine-1-carboxamide]",> 5000
6,"CC(C)Oc1ccc(-n2c(C(=O)N[C@H](C)c3ccc(C#N)cc3)c3n(c2=O)CCN(C(=O)c2ccc(Br)c(Cl)c2)C3)cc1 (stereo in doubt) [Example 233, 7-(4-bromo-3-chloro-benzoyl)-2-(4-isopropoxyphenyl)-3-oxo-N-[rac-(1R)-1-(4-cyanophenyl)ethyl]-6,8-dihydro-5H-imidazo[1,5-a]pyrazine-1-carboxamide]",100 to 500
7,"C[C@H](Oc1ccc(CNC(=O)c2c3n(c(=O)n2-c2ccc(OCC(F)(F)F)cc2)CCN(C(=O)c2ccc(Br)c(Cl)c2)C3)c(F)c1)C(N)=O (stereo in doubt) [Example 353, 7-(4-bromo-3-chloro-benzoyl)-N-[[2-fluoro-4-[rac-(1S)-2-amino-1-methyl-2-oxo-ethoxy]phenyl]methyl]-3-oxo-2-[4-(2,2,2-trifluoroethoxy)phenyl]-6,8-dihydro-5H-imidazo[1,5-a]pyrazine-1-carboxamide]",500 to 5000
8,"COc1ccc(-n2c(C(=O)N[C@@H]3CCc4ccccc43)c3n(c2=O)CCN(C(=O)c2ccc(Br)c(Cl)c2)C3)cc1 (racemic) [Example 75, 7-(4-bromo-3-chloro-benzoyl)-2-(4-methoxyphenyl)-3-oxo-N-[rac-(1R)-indan-1-yl]-6,8-dihydro-5H-imidazo[1,5-a]pyrazine-1-carboxamide]",500 to 5000
9,"Cc1cc2occc2cc1CNC(=O)c1c2n(c(=O)n1-c1ccc(OCC(F)(F)F)cc1)CCN(C(=O)c1ccc(Br)c(Cl)c1)C2 [Example 295, 7-(4-bromo-3-chloro-benzoyl)-N-[(6-methylbenzofuran-5-yl)methyl]-3-oxo-2-[4-(2,2,2-trifluoroethoxy)phenyl]-6,8-dihydro-5H-imidazo[1,5-a]pyrazine-1-carboxamide]",100 to 500
10,"O=C(NCc1ccccc1-n1cncn1)c1c2n(c(=O)n1-c1ccc(OC3CC3)cc1)CCN(C(=O)c1ccc(Br)c(Cl)c1)C2 [Example 422, 7-(4-bromo-3-chloro-benzoyl)-2-[4-(cyclopropoxy)phenyl]-3-oxo-N-[[2-(1,2,4-triazol-1-yl)phenyl]methyl]-6,8-dihydro-5H-imidazo[1,5-a]pyrazine-1-carboxamide]",< 100
11,"COc1ccc(-n2c(C(=O)NCc3ccc(OC(F)(F)F)cc3)c3n(c2=O)CCN(C(=O)c2ccc(Br)c(Cl)c2)C3)cc1 [Example 158, 7-(4-bromo-3-chloro-benzoyl)-2-(4-methoxyphenyl)-3-oxo-N-[[4-(trifluoromethoxy)phenyl]methyl]-6,8-dihydro-5H-imidazo[1,5-a]pyrazine-1-carboxamide]",100 to 500
12,"N#Cc1cc(C(=O)N2CCn3c(c(C(=O)NCc4ccccc4-c4ncccn4)n(-c4ccc(-n5cccn5)cc4)c3=O)C2)ccc1Br [Example 426, 7-(4-bromo-3-cyano-benzoyl)-3-oxo-2-(4-pyrazol-1-ylphenyl)-N-[(2-pyrimidin-2-ylphenyl)methyl]-6,8-dihydro-5H-imidazo[1,5-a]pyrazine-1-carboxamide]",100 to 500
13,"Cn1cnc2c(CNC(=O)c3c4n(c(=O)n3-c3ccc(OC5CC5)cc3)CCN(C(=O)c3ccc(Br)c(Cl)c3)C4)cccc21 [Example 399, 7-(4-bromo-3-chloro-benzoyl)-2-[4-(cyclopropoxy)phenyl]-N-[(1-methylbenzimidazol-4-yl)methyl]-3-oxo-6,8-dihydro-5H-imidazo[1,5-a]pyrazine-1-carboxamide]",100 to 500
14,COc1ccc(-n2c(-c3ncc(Cc4ccccc4)o3)c3n(c2=O)CCN(C(=O)c2ccc(Br)c(Cl)c2)C3)cc1 [Example 86],500 to 5000
15,"O=C(c1ccc(Br)c(Cl)c1)N1CCn2c(c3n(c2=O)C[C@@H](F)CN(Cc2ccccc2)C3=O)C1 (stereo in doubt) [Example 201, rac-(11S)-13-benzyl-4-(4-bromo-3-chloro-benzoyl)-11-fluoro-4,7,9,13-tetrazatricyclo[7.5.0.0^2,7]tetradec-1-ene-8,14-dione]",100 to 500
16,"NC(=O)COc1ccc(CNC(=O)c2c3n(c(=O)n2-c2ccc(OCC(F)(F)F)cc2)CCN(C(=O)c2ccc(Br)c(Cl)c2)C3)c(-n2cccn2)c1 [Example 328, N-[[4-(2-amino-2-oxo-ethoxy)-2-pyrazol-1-yl-phenyl]methyl]-7-(4-bromo-3-chloro-benzoyl)-3-oxo-2-[4-(2,2,2-trifluoroethoxy)phenyl]-6,8-dihydro-5H-imidazo[1,5-a]pyrazine-1-carboxamide]",500 to 5000
17,"C[C@H](NC(=O)c1c2n(c(=O)n1-c1ccc(OCC(F)(F)F)cc1)CCN(C(=O)c1ccc(Br)c(Cl)c1)C2)c1ccc(OCC(N)=O)cc1-n1cccn1 (stereo in doubt) [Example 380, 7-(4-bromo-3-chloro-benzoyl)-3-oxo-N-[rac-(1S)-1-[4-(2-amino-2-oxo-ethoxy)-2-pyrazol-1-yl-phenyl]ethyl]-2-[4-(2,2,2-trifluoroethoxy)phenyl]-6,8-dihydro-5H-imidazo[1,5-a]pyrazine-1-carboxamide]",> 5000
18,"O=C(NCc1ccccc1)c1c2n(c(=O)n1-c1ccc(OC3CC(F)(F)C3)cc1)CCN(C(=O)c1ccc(Br)c(Cl)c1)C2 [Example 350, N-benzyl-7-(4-bromo-3-chloro-benzoyl)-2-[4-(3,3-difluorocyclobutoxy)phenyl]-3-oxo-6,8-dihydro-5H-imidazo[1,5-a]pyrazine-1-carboxamide]",500 to 5000
19,"CC1Cn2c(c(C(=O)N[C@@H](C)c3ccccc3F)n(-c3ccc(OC4CC4)cc3)c2=O)CN1C(=O)c1ccc(Br)c(Cl)c1 (mixture of isomers) [Example 334, (6SR)-7-(4-bromo-3-chloro-benzoyl)-2-[4-(cyclopropoxy)phenyl]-N-[(1S)-1-(2-fluorophenyl)ethyl]-6-methyl-3-oxo-6,8-dihydro-5H-imidazo[1,5-a]pyrazine-1-carboxamide]",100 to 500
20,"C[C@@H](NC(=O)c1c2n(c(=O)n1-c1ccc(OCC(F)(F)F)cc1)CCN(C(=O)c1ccc(Br)c(Cl)c1)C2)c1ccc(OCC(N)=O)cc1-n1cccn1 (stereo in doubt) [Example 381, 7-(4-bromo-3-chloro-benzoyl)-3-oxo-N-[rac-(1R)-1-[4-(2-amino-2-oxo-ethoxy)-2-pyrazol-1-yl-phenyl]ethyl]-2-[4-(2,2,2-trifluoroethoxy)phenyl]-6,8-dihydro-5H-imidazo[1,5-a]pyrazine-1-carboxamide]",> 5000
21,"CC1(C)CN(c2ccc(-n3c(C(=O)NCc4ccccc4)c4n(c3=O)CCN(C(=O)c3ccc(Br)c(Cl)c3)C4)cc2)CCO1 [Example 410, N-benzyl-7-(4-bromo-3-chloro-benzoyl)-2-[4-(2,2-dimethylmorpholin-4-yl)phenyl]-3-oxo-6,8-dihydro-5H-imidazo[1,5-a]pyrazine-1-carboxamide]",100 to 500
22,"C[C@H](NC(=O)c1c2n(c(=O)n1-c1ccc(OC3CCC3)cc1)CCN(C(=O)c1ccc(Br)c(Cl)c1)C2)c1ccccc1 (stereo in doubt) [Example 136, 7-(4-bromo-3-chloro-benzoyl)-2-[4-(cyclobutoxy)phenyl]-3-oxo-N-[rac-(1S)-1-phenylethyl]-6,8-dihydro-5H-imidazo[1,5-a]pyrazine-1-carboxamide]",100 to 500
23,"C[C@@H](NC(=O)c1c2n(c(=O)n1-c1ccc(OC3CC3)cc1)CCN(C(=O)c1ccc(Br)c(Cl)c1)C2)c1ccc(OC2COC2)cc1F (stereo in doubt) [Example 346, 7-(4-bromo-3-chloro-benzoyl)-2-[4-(cyclopropoxy)phenyl]-3-oxo-N-[rac-(1R)-1-[2-fluoro-4-(oxetan-3-yloxy)phenyl]ethyl]-6,8-dihydro-5H-imidazo[1,5-a]pyrazine-1-carboxamide]",100 to 500
24,"COc1ccc(-n2c(C(=O)NCc3ccc(OC(C)C)cc3)c3n(c2=O)CCN(C(=O)c2ccc(Br)c(Cl)c2)C3)cc1 [Example 156, 7-(4-bromo-3-chloro-benzoyl)-N-[(4-isopropoxyphenyl)methyl]-2-(4-methoxyphenyl)-3-oxo-6,8-dihydro-5H-imidazo[1,5-a]pyrazine-1-carboxamide]",100 to 500
